The values below come from ChEMBL document CHEMBL1153165, “Solvent-free, microwave assisted synthesis of polyhalo heterocyclic ketene aminals as novel anti-cancer agents” (Bioorg Med Chem Lett, 2010).

Common to all, as to assay type: functional, cell-based
Experiment [1] deals with HL-60. In words: Antitumor activity against human HL60 cells by MTT assay.
Experiment [2] relates to HepG2. In words: Antitumor activity against human HepG2 cells by MTT assay.
Experiment [3] deals with SK-OV-3. In words: Antitumor activity against human SKOV3 cells by MTT assay.
The test system of experiment [4] is A-431. In words: Antitumor activity against human A431 cells by MTT assay.
Experiment [5] deals with K562. In words: Antitumor activity against human K562 cells by MTT assay.

Values after ≈ are worked out from the molar mass of the structure shown.

In the case of `CCOC(=O)C(=C1NCCN1)c1c(F)c(F)c(C#N)c(F)c1C#N`, the IC50 in experiment [1] came to 0.02 µg/mL (≈ 0.0595 µM); in experiment [2], 0.7 µg/mL (≈ 2.08 µM); in experiment [3] it was 3.3 µg/mL (≈ 9.81 µM); in experiment [4], 3.7 µg/mL (≈ 11 µM); in experiment [5] it was 0.03 µg/mL (≈ 0.0892 µM).
Consider `Cc1ccc(C(=O)C(=C2NCCN2)c2c(Cl)c(Cl)c(C#N)c(Cl)c2C#N)cc1`, for which the IC50 in experiment [1] came out at 15.7 µg/mL (≈ 36.4 µM); in experiment [2] it was 15.8 µg/mL (≈ 36.6 µM); in experiment [3] it was 9.2 µg/mL (≈ 21.3 µM); in experiment [4], 4.1 µg/mL (≈ 9.5 µM); in experiment [5], 1.4 µg/mL (≈ 3.24 µM).
Take `Cc1ccc(C(=O)C(=C2NCCN2)c2c(Cl)c(F)c(C#N)c(F)c2C#N)cc1`: the IC50 in experiment [1] was 0.03 µg/mL (≈ 0.0752 µM); in experiment [2], 49.1 µg/mL (≈ 123 µM); in experiment [3] it was 6.7 µg/mL (≈ 16.8 µM); in experiment [4], 1.7 µg/mL (≈ 4.26 µM); in experiment [5] it was 41.9 µg/mL (≈ 105 µM).
Taken in the same sequence, the figures for `N#Cc1c(Cl)c(Cl)c(C(C(=O)c2ccccc2)=C2NCCN2)c(C#N)c1Cl` were 9.1 µg/mL (≈ 21.8 µM), 10.2 µg/mL (≈ 24.4 µM), 9.9 µg/mL (≈ 23.7 µM), 2.3 µg/mL (≈ 5.51 µM) and 8.5 µg/mL (≈ 20.4 µM).
In the case of `N#Cc1c(F)c(F)c(C(C(=O)c2ccc(F)cc2)=C2NCCCN2)c(C#N)c1F`, the 50% inhibitory concentration (IC50) is 0.04 µg/mL (≈ 0.0999 µM) in experiment [1]; 11 µg/mL (≈ 27.5 µM) in experiment [2]; 0.5 µg/mL (≈ 1.25 µM) in experiment [3]; 1.8 µg/mL (≈ 4.5 µM) in experiment [4]; 2.5 µg/mL (≈ 6.24 µM) in experiment [5].
Turning to `N#Cc1c(Cl)c(Cl)c(C(C(=O)c2ccccc2)=C2NCCCCN2)c(C#N)c1Cl`, the IC50 is 0.2 µg/mL (≈ 0.449 µM) in experiment [1]; 14.5 µg/mL (≈ 32.5 µM) in experiment [2]; 2.7 µg/mL (≈ 6.06 µM) in experiment [3]; 1 µg/mL (≈ 2.24 µM) in experiment [4]; 0.1 µg/mL (≈ 0.224 µM) in experiment [5].
`Cc1ccc(C(=O)C(=C2NCCN2)c2c(F)c(F)c(C#N)c(F)c2C#N)cc1`: the IC50 came out at 0.04 µg/mL (≈ 0.105 µM) in experiment [1]; 29.2 µg/mL (≈ 76.4 µM) in experiment [2]; 2 µg/mL (≈ 5.23 µM) in experiment [3]; 0.5 µg/mL (≈ 1.31 µM) in experiment [4]; 0.9 µg/mL (≈ 2.35 µM) in experiment [5].
For `CCOC(=O)C(=C1NCCN1)c1c(Cl)c(F)c(C#N)c(F)c1C#N`, in that order: 0.02 µg/mL (≈ 0.0567 µM), 2.5 µg/mL (≈ 7.09 µM), 4.9 µg/mL (≈ 13.9 µM), 3.9 µg/mL (≈ 11.1 µM) and 0.09 µg/mL (≈ 0.255 µM).
Regarding `COc1ccc(C(=O)C(=C2NCCN2)c2c(Cl)c(F)c(C#N)c(F)c2C#N)cc1`, the IC50 is 0.05 µg/mL (≈ 0.121 µM) in experiment [1]; 9.8 µg/mL (≈ 23.6 µM) in experiment [2]; 1.1 µg/mL (≈ 2.65 µM) in experiment [3]; 0.7 µg/mL (≈ 1.69 µM) in experiment [4]; 22.6 µg/mL (≈ 54.5 µM) in experiment [5].
Turning to `CCOC(=O)C(=C1NCCN1)c1c(Cl)c(Cl)c(C#N)c(Cl)c1C#N`, the IC50 in experiment [1] came out at 0.4 µg/mL (≈ 1.04 µM); in experiment [2] it was 0.2 µg/mL (≈ 0.519 µM); in experiment [3], 4.1 µg/mL (≈ 10.6 µM); in experiment [4], 0.2 µg/mL (≈ 0.519 µM); in experiment [5], 0.5 µg/mL (≈ 1.3 µM).
Turning to `N#Cc1c(Cl)c(Cl)c(C(C(=O)c2ccc(F)cc2)=C2NCCCN2)c(C#N)c1Cl`, the IC50 worked out at 2.1 µg/mL (≈ 4.67 µM) in experiment [1]; 31.8 µg/mL (≈ 70.7 µM) in experiment [2]; 10.4 µg/mL (≈ 23.1 µM) in experiment [3]; 1.1 µg/mL (≈ 2.45 µM) in experiment [4]; 0.2 µg/mL (≈ 0.445 µM) in experiment [5].
For `N#Cc1c(F)c(Cl)c(C(C(=O)c2ccc(F)cc2)=C2NCCCN2)c(C#N)c1F`, the IC50 came to 0.6 µg/mL (≈ 1.44 µM) in experiment [1]; 45.1 µg/mL (≈ 108 µM) in experiment [2]; 8.2 µg/mL (≈ 19.7 µM) in experiment [3]; 0.9 µg/mL (≈ 2.16 µM) in experiment [4]; 1.8 µg/mL (≈ 4.32 µM) in experiment [5].
With `N#Cc1c(F)c(F)c(C(C(=O)c2ccc(Cl)cc2)=C2NCCN2)c(C#N)c1F`, the IC50 came to 0.3 µg/mL (≈ 0.745 µM) in experiment [1]; 12.5 µg/mL (≈ 31 µM) in experiment [2]; 3.8 µg/mL (≈ 9.43 µM) in experiment [3]; 3.2 µg/mL (≈ 7.95 µM) in experiment [4]; 1.8 µg/mL (≈ 4.47 µM) in experiment [5].
With `N#Cc1c(F)c(C#N)c(C(C(=O)c2ccccc2)=C2NCCN2)c(F)c1Nc1ccccc1`, the IC50 in experiment [1] turned out to be 0.3 µg/mL (≈ 0.68 µM); in experiment [2], 102 µg/mL (≈ 231 µM); in experiment [3] it was 0.2 µg/mL (≈ 0.453 µM); in experiment [4], 5.3 µg/mL (≈ 12 µM); in experiment [5], 5.6 µg/mL (≈ 12.7 µM).
In the case of `N#Cc1c(F)c(Cl)c(C(C(=O)c2ccc(Cl)cc2)=C2NCCN2)c(C#N)c1F`, the IC50 in experiment [1] amounted to 0.3 µg/mL (≈ 0.716 µM); in experiment [2], 47.5 µg/mL (≈ 113 µM); in experiment [3] it was 8.6 µg/mL (≈ 20.5 µM); in experiment [4], 1.8 µg/mL (≈ 4.29 µM); in experiment [5] it was 1.6 µg/mL (≈ 3.82 µM).
Taken in the same sequence, the figures for `N#Cc1c(F)c(Cl)c(C(C(=O)c2ccccc2)=C2NCCN2)c(C#N)c1F` were 4.7 µg/mL (≈ 12.2 µM), 32.6 µg/mL (≈ 84.7 µM), 32.6 µg/mL (≈ 84.7 µM), 87.1 µg/mL (≈ 226 µM) and 20.8 µg/mL (≈ 54.1 µM).
Take `COc1ccc(C(=O)C(=C2NCCN2)c2c(Cl)c(Cl)c(C#N)c(Cl)c2C#N)cc1`: the IC50 in experiment [1] was 2.3 µg/mL (≈ 5.14 µM); in experiment [2], 10.8 µg/mL (≈ 24.1 µM); in experiment [3], 6.4 µg/mL (≈ 14.3 µM); in experiment [4] it was 0.5 µg/mL (≈ 1.12 µM); in experiment [5] it was 0.08 µg/mL (≈ 0.179 µM).
Regarding `CC(=O)C(=C1NCCN1)c1c(Cl)c(F)c(C#N)c(F)c1C#N`, the IC50 came out at 0.3 µg/mL (≈ 0.93 µM) in experiment [1]; 1.3 µg/mL (≈ 4.03 µM) in experiment [2]; 1.5 µg/mL (≈ 4.65 µM) in experiment [3]; 2.9 µg/mL (≈ 8.99 µM) in experiment [4]; 4.4 µg/mL (≈ 13.6 µM) in experiment [5].
Taken in the same sequence, the figures for `N#Cc1c(F)c(Cl)c(C(C(=O)c2ccccc2)=C2NCCCCN2)c(C#N)c1F` were 0.1 µg/mL (≈ 0.242 µM), 27.8 µg/mL (≈ 67.3 µM), 4.6 µg/mL (≈ 11.1 µM), 1.5 µg/mL (≈ 3.63 µM) and 2.1 µg/mL (≈ 5.09 µM).
For `N#Cc1c(F)c(F)c(C(C(=O)c2ccccc2)=C2NCCCCN2)c(C#N)c1F`, the IC50 is 0.1 µg/mL (≈ 0.252 µM) in experiment [1]; 24.9 µg/mL (≈ 62.8 µM) in experiment [2]; 4.2 µg/mL (≈ 10.6 µM) in experiment [3]; 1.9 µg/mL (≈ 4.79 µM) in experiment [4]; 0.3 µg/mL (≈ 0.757 µM) in experiment [5].
For `CC(=O)C(=C1NCCN1)c1c(Cl)c(Cl)c(C#N)c(Cl)c1C#N`, in that order: 3.7 µg/mL (≈ 10.4 µM), 5.8 µg/mL (≈ 16.3 µM), 14.1 µg/mL (≈ 39.6 µM), 1.5 µg/mL (≈ 4.22 µM) and 0.1 µg/mL (≈ 0.281 µM).
Taken in the same sequence, the figures for `N#Cc1c(F)c(F)c(C(C(=O)c2ccccc2)=C2NCCN2)c(C#N)c1F` were 0.2 µg/mL (≈ 0.543 µM), 9.1 µg/mL (≈ 24.7 µM), 30.3 µg/mL (≈ 82.3 µM), 5.5 µg/mL (≈ 14.9 µM) and 19.6 µg/mL (≈ 53.2 µM).
`N#Cc1c(Cl)c(Cl)c(C(C(=O)c2ccc(Cl)cc2)=C2NCCN2)c(C#N)c1Cl`: the IC50 in experiment [1] was 0.5 µg/mL (≈ 1.11 µM); in experiment [2], 5.2 µg/mL (≈ 11.5 µM); in experiment [3], 1.6 µg/mL (≈ 3.54 µM); in experiment [4], 1.5 µg/mL (≈ 3.32 µM); in experiment [5] it was 0.8 µg/mL (≈ 1.77 µM).
